Results: EP1175402B1, “PIPERIDINE DERIVATIVES USEFUL AS CCR5 ANTAGONISTS” (SCHERING CORPORATION, priority 1999, dated 2000)

Each compound was assayed against T1, human CCR5 chemokine receptor (Homo sapiens, UniProt P51681) (assay: CCR5 membrane binding assay (inhibition of 125I-RANTES binding)). Conditions: membranes from NIH 3T3 cells expressing the human CCR5 chemokine receptor, one hour incubation.
T1 construct: expressed in transfected cells; host or cells: NIH 3T3 cells (murine), membranes
T1 sequence (P51681 whole entry): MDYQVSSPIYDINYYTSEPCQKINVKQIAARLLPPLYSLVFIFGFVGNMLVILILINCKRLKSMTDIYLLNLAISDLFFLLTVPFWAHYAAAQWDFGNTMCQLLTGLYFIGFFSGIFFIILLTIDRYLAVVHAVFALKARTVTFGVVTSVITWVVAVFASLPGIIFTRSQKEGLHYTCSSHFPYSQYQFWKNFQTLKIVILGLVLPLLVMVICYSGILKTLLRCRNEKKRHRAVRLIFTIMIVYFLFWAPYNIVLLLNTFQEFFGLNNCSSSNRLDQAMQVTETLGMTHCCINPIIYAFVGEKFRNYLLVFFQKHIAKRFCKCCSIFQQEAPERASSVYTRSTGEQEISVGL
Protocol: CCR5 Membrane Binding Assay:
A high throughput screen utilizing a CCR5 membrane binding assay identifies inhibitors of RANTES binding. This assay utilizes membranes prepared from NIH 3T3 cells expressing the human CCR5 chemokine receptor which have the ability to bind to RANTES, a natural ligand for the receptor. Using a 96-well plate format, membrane preparations are incubated with ^125I-RANTES in the presence or absence of compound for one hour. Compounds are serially diluted over a wide range of 0.001 ug/ml to 1 ug/ml and tested in triplicates. Reaction cocktails are harvested through glass fiber filters, and washed thoroughly. Total counts for replicates are averaged and data reported as the concentration required to inhibit 50 percent of total ^125I-RANTES binding.

Ki | SMILES
14 nM | CCC(=O)OC(c1ccc(Br)cc1)C1CCN(C2(C)CCN(C(=O)c3c(C)cccc3C)CC2)CC1 (stereo not shown) [Example 1B]
62.5 nM | CO/N=C(/c1ccc(OC(F)(F)F)cc1)C1CCN(C2(C)CCN(C(=O)c3c(C)cccc3C)CC2)CC1 [Example 7U]
0.5 nM | Cc1ncnc(C)c1C(=O)N1CCC(C)(N2CCC(C(Oc3ccccn3)c3ccc(Br)cc3)CC2)CC1 (single isomer, unassigned) [Example 4C]
9.6 nM | Cc1ccnc(C)c1C(=O)N1CCC(C)(N2CCC(C(Oc3ccccn3)c3ccc(S(C)(=O)=O)cc3)CC2)CC1 (stereo not shown) [Example 2]
